Results: patent US11130793B2, “GLP-1/GLP-2 dual agonists” (Zealand Pharma A/S, priority 2016, dated 2021)
Like-named read-outs stand apart in the source and are kept apart here. Square brackets hold non-standard residues; d marks the D form. Peptide text beside a SMILES is read from it. Aib = CC(C)(N)C(=O)O

What was measured:
human GLP-2 receptor [1] = target: T1, human GLP-2 receptor (Homo sapiens, UniProt O95838); assay: GLP-2 receptor potency assay (cAMP AlphaScreen, HEK293 cells stably expressing GLP-2R); assay type: cell-based
T1 sequence (O95838 1-553 D470N): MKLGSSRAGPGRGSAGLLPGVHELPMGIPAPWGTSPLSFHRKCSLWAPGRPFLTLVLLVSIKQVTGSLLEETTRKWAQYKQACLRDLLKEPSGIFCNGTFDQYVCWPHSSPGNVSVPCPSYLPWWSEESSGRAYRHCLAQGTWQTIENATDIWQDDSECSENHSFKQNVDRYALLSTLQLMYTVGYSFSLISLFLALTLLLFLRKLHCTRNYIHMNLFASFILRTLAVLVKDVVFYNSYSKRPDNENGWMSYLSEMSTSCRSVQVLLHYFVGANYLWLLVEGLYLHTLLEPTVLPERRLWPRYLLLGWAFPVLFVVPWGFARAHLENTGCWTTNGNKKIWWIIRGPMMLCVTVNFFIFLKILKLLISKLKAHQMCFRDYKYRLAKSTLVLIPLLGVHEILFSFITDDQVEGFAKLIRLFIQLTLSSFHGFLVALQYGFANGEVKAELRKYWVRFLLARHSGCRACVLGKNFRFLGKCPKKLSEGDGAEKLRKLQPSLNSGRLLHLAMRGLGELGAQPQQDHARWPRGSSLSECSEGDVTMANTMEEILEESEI
Summary of the method: (§1)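 HEK293 cells stably expressing human GLP-2R (G418-selected clone); intracellular cAMP measured by AlphaScreen. Responses normalized to positive and vehicle controls; EC50 and maximal response from 4-parameter logistic fit.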

human GLP-1 receptor = target: T2, human GLP-1 receptor (Homo sapiens, UniProt P43220); assay: GLP-1 receptor potency assay (cAMP AlphaScreen, HEK293 cells stably expressing GLP-1R); assay type: cell-based
T2 construct: expressed in transfected cells
Summary of the method: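 A HEK293 clone stably expressing cloned human GLP-1R (G418-selected) was stimulated with compound. Intracellular cAMP was measured by AlphaScreen. Responses were normalized to positive and vehicle controls, and EC50 and maximal response were fitted by 4-parameter logistic regression.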

[2] = Chemical stability, RP-HPLC main peak area-% after incubation at 40° C.; assay type: physicochemical; conditions: pH 7, 40° C., 14 day incubation, 0.2 mg/ml, normalized purity
Experimental: Samples of each test peptide were dissolved in MilliQ™ water, and the pH of the solution was adjusted to pH 6, 7, 7.5 or 9 using either HCl or NaOH. The final peptide concentration was 0.2 mg/ml. Samples were placed in glass vials and incubated at 40° C. The samples were analyzed by RP-HPLC on a C18 column with gradient elution using an acetonitrile/TFA/water eluent system. The area-percentage (area-%) of the main peak after incubation time T=t (relative to time T=0) was determined by UV spectroscopy at 220 nm.
The purity was first determined as follows: Purity (area-%)=(area of main peak/total area of all peaks)×100.
The purity was then normalized between time points by setting purity at time 0 (T=0) to 100 for each pH value for a given peptide, as follows: Normalised area-% at time t (T=t)=[area-% (T=t)/area-% (T=0)]×100.
The chemical stability assessment results after 14 day incubation (in the form of normalized purity values) are summarized in Table 4.

human GLP-2 receptor [3] = target: T3, human GLP-2 receptor (Homo sapiens, UniProt O95838, D470N); assay: GLP-2 receptor potency assay (cAMP AlphaScreen, HEK293 cells stably expressing GLP-2R); assay type: cell-based; conditions: cAMP response, HEK293 cells expressing human GLP-2R
T3 sequence (O95838 1-553 D470N): T1 sequence (O95838 1-553 D470N)
Summary of the method: as §1

[4] = tested on: Normal chow-fed C57BL/6J male mice; assay: Effect on fasting glucose and intestinal weight in normal mice; assay type: in vivo; conditions: for Small intestinal wet weight: 250 nmol/kg s.c. once daily for 4 days, sacrificed 24 hours after final dosing; for Fasting blood glucose: day 0, fasted mice, after a single s.c. injection, 250 nmol/kg
Experimental: Normal chow-fed C57BL/6J male mice were used. The mice were kept in standard housing conditions, light-, temperature-, and humidity-controlled room (12:12 h light-dark cycle, with lights on at 06.00-18.00 h; 20-22° C.; 50-80% relative humidity). Each dosing group consisted of 6 animals. Mice were dosed once daily with 250 nmol/kg with the test compounds or vehicle for 4 days via subcutaneous administration.
On day 0 mice were fasted and blood glucose levels measured after a single s.c. injection with peptides. Animals were sacrificed 24 hours after final dosing on day 3, and small intestinal wet weights were measured.

[5] = Solubility assessment by turbidity absorbance at 325 nm; assay type: physicochemical; conditions: 1 mg/ml peptide
Experimental: A stock solution of the test peptide (2 mg/ml; determined from the weighed amount of peptide) in demineralized water adjusted to pH 2.5 with HCl was prepared, and aliquots were diluted 1:1 in 100 mM acetate buffer (pH 4.0 and pH 5.0), 100 mM histidine buffer (pH 6.0 and pH 7.0) and 100 mM phosphate buffer (pH 6.0, pH 7.0 and pH7.5), respectively, and loaded in a standard flat-bottom, non-sterile 96-well UV Microplate. The absorbance of samples (single samples, n=1) at 280 and 325 nm was measured in an absorbance-based plate reader, which was preheated to ambient temperature (typically 25° C.).

[6] = target: human glucagon-like peptide 1 receptor (GLP-1R) (human) (UniProt P43220)
[7] = cAMP response, HEK293 cells expressing human GLP-1R, read-out: EC50 GLP-1
[8] = 100 mM acetate buffer pH 4.0, ambient temperature, read-out: Solubility, Acetate buffer pH 4
[9] = 100 mM acetate buffer pH 5.0, ambient temperature, read-out: Solubility, Acetate buffer pH 5
[10] = 100 mM histidine buffer pH 6.0, ambient temperature, read-out: Solubility, Histidine buffer pH 6
[11] = 100 mM histidine buffer pH 7.0, ambient temperature, read-out: Solubility, Histidine buffer pH 7
[12] = 100 mM phosphate buffer pH 6.0, ambient temperature, read-out: Solubility, Phosphate buffer pH 6
[13] = 100 mM phosphate buffer pH 7.0, ambient temperature, read-out: Solubility, Phosphate buffer pH 7
[14] = 100 mM phosphate buffer pH 7.5, ambient temperature, read-out: Solubility, Phosphate buffer pH 7.5

T2 sequence (P43220 24-463): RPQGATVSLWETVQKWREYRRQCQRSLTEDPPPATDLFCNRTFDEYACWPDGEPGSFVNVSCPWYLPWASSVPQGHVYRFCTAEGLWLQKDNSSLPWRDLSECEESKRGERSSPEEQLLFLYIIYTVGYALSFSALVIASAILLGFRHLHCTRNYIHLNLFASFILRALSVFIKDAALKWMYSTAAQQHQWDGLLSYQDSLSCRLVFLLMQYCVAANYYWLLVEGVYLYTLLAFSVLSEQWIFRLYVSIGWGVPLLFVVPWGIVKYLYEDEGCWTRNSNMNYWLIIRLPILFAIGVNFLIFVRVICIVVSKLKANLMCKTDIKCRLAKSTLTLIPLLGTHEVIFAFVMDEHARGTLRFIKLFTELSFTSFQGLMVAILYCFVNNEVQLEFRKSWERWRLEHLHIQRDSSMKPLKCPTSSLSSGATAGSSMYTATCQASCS

EC50 (human GLP-2 receptor [3]) | EC50 (human GLP-1 receptor; [7]) | solubility [5, 8] | solubility [5, 9] | solubility [5, 10] | solubility [5, 11] | solubility [5, 12] | solubility [5, 13] | solubility [5, 14] | EC50 GLP-1 (nM); cAMP AlphaScreen [6] | Compound | EC50 (human GLP-2 receptor [1]) | EC50 (human GLP-1 receptor) | pH 7 normalised stability [2] | Small intestinal wet weight [4] | Fasting blood glucose [4]
 |  |  |  |  |  |  |  |  |  | H-HGEGTFTSELATILDEQAARDFIAWLIAHKITD-OH [Compound 38] | 0.043 nM | 0.008 nM | C (<80% normalized stability) |  | 
0.036 nM | 0.014 nM | ≥ 1000 µg/mL | < 1000 µg/mL | ≥ 1000 µg/mL | ≥ 1000 µg/mL | ≥ 1000 µg/mL | ≥ 1000 µg/mL | ≥ 1000 µg/mL |  | CC[C@H](C)[C@H](NC(=O)[C@H](CC(C)C)NC(=O)[C@H](Cc1c[nH]c2ccccc12)NC(=O)[C@H](C)NC(=O)[C@@H](NC(=O)[C@H](Cc1ccccc1)NC(=O)[C@H](CC(=O)O)NC(=O)[C@H](CCCNC(=N)N)NC(=O)[C@H](C)NC(=O)[C@H](C)NC(=O)[C@H](CCC(N)=O)NC(=O)[C@H](CCC(=O)O)NC(=O)[C@H](CC(=O)O)NC(=O)[C@H](CC(C)C)NC(=O)[C@@H](NC(=O)[C@@H](NC(=O)[C@H](C)NC(=O)[C@H](CC(C)C)NC(=O)[C@H](CCC(=O)O)NC(=O)[C@H](CO)NC(=O)[C@@H](NC(=O)[C@H](Cc1ccccc1)NC(=O)[C@H](CO)NC(=O)CNC(=O)[C@H](CCC(=O)O)NC(=O)C(C)(C)NC(=O)[C@@H](N)Cc1c[nH]cn1)[C@@H](C)O)[C@@H](C)O)[C@@H](C)CC)[C@@H](C)CC)C(=O)N[C@@H](C)C(=O)N[C@@H](Cc1c[nH]cn1)C(=O)N[C@@H](CCCCN)C(=O)N[C@H](C(=O)N[C@H](C(=O)N[C@@H](CC(=O)O)C(=O)O)[C@@H](C)O)[C@@H](C)CC [Compound 1] (H-H[Aib]EGSFTSELATILDEQAARDFIAWLIAHKITD-OH) |  |  |  | 0.90 g | 5.76 mM
 |  |  |  |  |  |  |  |  |  | CC[C@H](C)[C@H](NC(=O)[C@H](CC(C)C)NC(=O)[C@H](Cc1c[nH]c2ccccc12)NC(=O)[C@H](C)NC(=O)[C@@H](NC(=O)[C@H](Cc1ccccc1)NC(=O)[C@H](CCC(=O)O)NC(=O)[C@H](CCCNC(=N)N)NC(=O)[C@H](CO)NC(=O)[C@H](C)NC(=O)[C@H](CCC(N)=O)NC(=O)[C@H](CCC(=O)O)NC(=O)[C@H](CCC(=O)O)NC(=O)[C@H](CC(C)C)NC(=O)[C@@H](NC(=O)[C@@H](NC(=O)[C@H](CO)NC(=O)[C@H](CC(C)C)NC(=O)[C@H](CCC(=O)O)NC(=O)[C@H](CO)NC(=O)[C@H](CO)NC(=O)[C@H](Cc1ccccc1)NC(=O)[C@@H](NC(=O)CNC(=O)[C@H](CCC(=O)O)NC(=O)C(C)(C)NC(=O)[C@@H](N)Cc1c[nH]cn1)[C@@H](C)O)[C@@H](C)O)[C@@H](C)CC)[C@@H](C)CC)C(=O)N[C@@H](C)C(=O)N[C@@H](Cc1c[nH]cn1)C(=O)N[C@@H](CCCCN)C(=O)N[C@H](C(=O)N[C@H](C(=O)N[C@@H](CCC(=O)O)C(=O)O)[C@@H](C)O)[C@@H](C)CC [Compound 39] (H-H[Aib]EGTFSSELSTILEEQASREFIAWLIAHKITE-OH) | 0.96 nM | 0.03 nM |  |  | 
 |  |  |  |  |  |  |  |  | 0.029 nM | Liraglutide (NN2211; Victoza) (peptide) |  |  |  |  | 
0.067 nM | 0.0098 nM | ≥ 1000 µg/mL | < 1000 µg/mL | ≥ 1000 µg/mL | ≥ 1000 µg/mL | ≥ 1000 µg/mL | ≥ 1000 µg/mL | ≥ 1000 µg/mL |  | CC[C@H](C)[C@H](NC(=O)[C@H](Cc1ccccc1)NC(=O)[C@H](CC(=O)O)NC(=O)[C@H](CCCNC(=N)N)NC(=O)[C@H](C)NC(=O)[C@H](C)NC(=O)[C@H](CCC(N)=O)NC(=O)[C@H](CCC(=O)O)NC(=O)[C@H](CC(=O)O)NC(=O)[C@H](CC(C)C)NC(=O)[C@@H](NC(=O)[C@@H](NC(=O)[C@H](C)NC(=O)[C@H](CC(C)C)NC(=O)[C@H](CCC(=O)O)NC(=O)[C@H](CO)NC(=O)[C@@H](NC(=O)[C@H](Cc1ccccc1)NC(=O)[C@@H](NC(=O)CNC(=O)[C@H](CCC(=O)O)NC(=O)C(C)(C)NC(=O)[C@@H](N)Cc1c[nH]cn1)[C@@H](C)O)[C@@H](C)O)[C@@H](C)O)[C@@H](C)CC)C(=O)N[C@@H](C)C(=O)N[C@@H](Cc1c[nH]c2ccccc12)C(=O)N[C@@H](CC(C)C)C(=O)N[C@H](C(=O)N[C@@H](CCC(=O)O)C(=O)N[C@@H](Cc1c[nH]cn1)C(=O)N[C@@H](CCCCN)C(=O)N[C@H](C(=O)N[C@H](C(=O)N[C@@H](CC(=O)O)C(=O)O)[C@@H](C)O)[C@@H](C)CC)[C@@H](C)CC [Compound 5] (H-H[Aib]EGTFTSELATILDEQAARDFIAWLIEHKITD-OH) |  |  |  | 0.90 g | 5.43 mM
